`O=C(C(=O)c1ccccn1)c1ccccn1`: the melting point (in general, the temperature of the solid-liquid transition) lay in the range of 154 to 156 °C. Then `Nc1cc(F)c(F)cc1[N+](=O)[O-]`, with 107 to 108 °C. Then `CCSc1ccc(CC(=O)O)cc1`, with 74 to 76 °C; and `O=C(CN1C(=O)CCC1=O)c1ccccc1F`, with 154 to 156 °C; and `Cn1ncc2c(N3CCNCC3)ncnc21`, with 64 to 66 °C. Then `Cc1nn(C)c(C)c1NC(=O)C(C)Cl` (stereo unspecified), with 120 to 122 °C; and `O=C(Cc1cccc(F)c1)c1ccc(Cl)c(Cl)c1`, with 121 to 123 °C. As to `COC(=O)c1ccc(F)cc1S(=O)(=O)Cl`, the melting point is 63 to 65 °C. Consider `O=C(O)C1CCCN(S(=O)(=O)c2ccc(Br)cc2)C1` (stereo unspecified), for which the melting point was 207 to 209 °C. For `CC1Oc2ncccc2NC1=O` (stereo unspecified) the value was 225 to 227 °C.

Consider `O=C(O)C=C1CCCC1`, for which the melting point was in the range of 61 to 63 °C. Consider `O=S(=O)(Cl)Cc1noc2ccccc12`, for which the melting point fell in the range of 96 to 98 °C. The compound `Nc1ncc(Cc2ccc(Cl)c(C(F)(F)F)c2)s1` displayed a melting point of 70 to 72 °C. For `Sc1nc2cc(Br)cnc2[nH]1` the value was 324 to 326 °C; for `Nc1nc(Cc2ccc(Br)cc2)cs1`, 146 to 148 °C. In turn, `Cn1nc(Br)c2c(NN)ncnc21` yielded a melting point of 198 to 200 °C. Regarding `O=C1c2ccccc2C(=O)N1CCc1nn[nH]n1`, the melting point fell in the range of 256 to 258 °C. Consider `O=C(CCl)NCC1CCCc2ccccc21` (stereo unspecified), for which the melting point lay in the range of 114 to 116 °C. For `CCOCCCNC(=O)CCl` the value was 25 to 27 °C. In the case of `COC(=O)c1ccc(C(=O)c2cc[nH]c2)cc1`, the melting point lay in the range of 159 to 161 °C. Turning to `CC(C)(CCCc1ccccc1)C(=O)O`, the melting point lay in the range of 48 to 50 °C. Then `NC(CC1C(=O)Nc2ccccc21)=NO` (stereo unspecified), with 183 to 185 °C.

On to `O=C(O)c1ccc(-c2cccc(C(F)(F)F)c2)cc1F`, for which the melting point is 208 to 210 °C. The compound `O=C(O)c1ccc(CSc2ccccc2)cc1` yielded a melting point of 179 to 181 °C. `O=C(O)C=Cc1ccc(OC(F)F)cc1`: the melting point lay within 182 to 184 °C.

In turn, `CN(C)c1ncc(N)cn1` came in with a melting point of 78 to 80 °C. `Cc1nc(N)oc1C`: the melting point lay in the range of 64 to 66 °C. For `COc1cc(CCC(=O)O)ccc1OCC(F)(F)F` the value was 103 to 105 °C; for `C=CS(=O)(=O)c1ccc([N+](=O)[O-])cc1`, 112 to 114 °C; for `COC(=O)C(N)Cc1c[nH]c2ccc(Br)cc12` (stereo unspecified), 119 to 121 °C. `c1ccc(OC2CCNCC2)cc1` yielded a melting point of 34 to 36 °C. Compound `O=Cc1cnc2ccnn2c1` had a melting point of 166 to 168 °C. For `NC(=NO)c1cc(Br)cs1` the value was 132 to 134 °C; for `CC(O)c1nc2cc(Cl)ccc2s1` (stereo unspecified), 109 to 111 °C. `NS(=O)(=O)N1CCCNCC1` came in with a melting point of 118 to 120 °C. `Cc1nn(Cc2ccc(Cl)cc2Cl)c(Cl)c1C(=O)O` registered a melting point of 227 to 229 °C.

Compound `NC(=S)CN1C(=O)c2ccccc2C1=O` registered a melting point of 173 to 175 °C. As to `COC(C)c1nc(C(=O)O)cs1` (stereo unspecified), the melting point was in the range of 73 to 75 °C.

On to `Cc1nccn1-c1ccc(CN)cn1`, for which the melting point lay within 45 to 47 °C.

Compound `FC(F)(F)c1cc(Cl)nc(-c2cccnc2)n1` gave a melting point of 114 to 116 °C.

On to `Cc1cc(Br)ccc1C(=O)N1CCCC(C(=O)O)C1` (stereo unspecified), for which the melting point is 123 to 125 °C. Then `O=C1CC2CCCc3cccc1c32` (stereo unspecified), with 95 to 97 °C. `Cc1c(C(=O)O)cnn1CC(C)C` registered a melting point of 109 to 111 °C. For `NNC(=O)CCN1CCCC1` the value was 137 to 139 °C. In turn, `CCCc1cc(=O)[nH]c(CCC)n1` came in with a melting point of 69 to 71 °C.

`CC(C)(C#N)Nc1ccccc1` yielded a melting point of 89 to 91 °C. Then `O=Cc1csc(-c2ccco2)n1`, with 90 to 92 °C.

Consider `N#Cc1ccc(N2CCN(c3ccc(F)cc3)CC2)nc1`, for which the melting point fell in the range of 166 to 168 °C. Then `O=C(O)c1cc2cc(Cl)c(Cl)cc2[nH]1`, with 321 to 323 °C; and `O=C1CCc2c(Br)cccc21`, with 95 to 99 °C; and `COc1ccc(-c2nc(CO)no2)cc1`, with 141 to 143 °C. The compound `NC(=O)Nc1ccc(S(=O)(=O)F)cc1` came in with a melting point of 177 to 179 °C. In the case of `NC(=O)[C@H]1CCCC[C@H]1C(=O)O`, the melting point was 169 to 171 °C. As to `N#CC1(N)CCSC1` (stereo unspecified), the melting point is 54 to 56 °C. Regarding `Cc1nc(-c2ccc(Br)cc2)n[nH]1`, the melting point is 190 to 192 °C. For the compound `CC(C)(C)OC(=O)NNC(=O)C(F)(F)F`, the melting point lay in the range of 119 to 121 °C. For `CCOC(=O)c1cn2c(n1)NCCC2` the value was 171 to 173 °C; for `CC(Cl)C(=O)Nc1c(F)c(F)c(F)c(F)c1F` (stereo unspecified), 123 to 125 °C; for `O=C(O)c1cc(-c2ccccc2)c(N2CCOCC2)s1`, 172 to 174 °C. Then `CCc1nnc2cc(Cl)ncn12`, with 108 to 110 °C; and `CC1Nc2ncccc2NC1=O` (stereo unspecified), with 272 to 274 °C. For `Cc1ccc(-n2nnnc2S)cc1` the value was 112 to 114 °C. Turning to `Cc1ccc(C)c(S(=O)(=O)Oc2ccccc2C(=O)O)c1`, the melting point lay in the range of 120 to 122 °C. `O=C(O)c1cc(-c2ccccc2)n(-c2ccccn2)n1` registered a melting point of 194 to 196 °C.

Take `O=C(NO)c1ccc(Cl)cc1`: the melting point is 170 to 172 °C. `O=C1Nc2cc(N3CCCC3)ccc2C1=O` showed a melting point of 293 to 295 °C. For `N#Cc1cc(Br)ccc1S(=O)(=O)Cl` the value was 94 to 96 °C; for `O=C(CCl)N1CCC(c2nc3ccccc3s2)CC1`, 59 to 61 °C. Compound `CC(CC(=O)O)c1cccc(F)c1` (stereo unspecified) came in with a melting point of 33 to 35 °C. `Cc1noc(C)c1S(=O)(=O)N1CCC(C(=O)O)CC1`: the melting point lay within 210 to 215 °C. Then `Cc1nn(-c2ccccc2)c(C)c1NC(=O)CCCl`, with 119 to 121 °C. Then `C=CCn1c(S)nnc1-c1ccoc1C`, with 293 to 295 °C.

Regarding `CC(Cl)C(=O)N1CCN(C(=O)OC(C)(C)C)CC1` (stereo unspecified), the melting point lay in the range of 115 to 117 °C. For `COCCS(=O)(=O)c1ccc(C(=O)O)cc1` the value was 160 to 162 °C; for `Cn1c(S)nnc1CC1CCS(=O)(=O)C1` (stereo unspecified), 237 to 239 °C; for `CCOc1cc(C(=O)N(C)C)ccc1N`, 107 to 109 °C. Then `CNC(=O)c1ccc(C=O)cc1`, with 152 to 154 °C; and `O=C(O)c1cccn1Cc1ccncc1`, with 199 to 201 °C; and `Cn1ncc2cn[nH]c2c1=O`, with 246 to 248 °C.

The compound `NC(=O)c1cc(Cl)nnc1Cl` displayed a melting point of 176 to 178 °C. In the case of `Cc1ccc(N)cc1NC(=O)c1ccncc1`, the melting point lay within 201 to 203 °C. For `CC(=O)Nc1cc(S(=O)(=O)Cl)ccc1O`, the melting point lay within 289 to 291 °C. As for `CC(Nc1ccccn1)c1ccco1` (stereo unspecified), the melting point lay within 136 to 138 °C. As to `O=C(O)c1csc(C(=O)O)c1`, the melting point was in the range of 279 to 281 °C. Then `CCN(CC)c1ccc(C=C[N+](=O)[O-])cc1`, with 98 to 100 °C; and `CC(C)c1c(C(=O)O)cnn1-c1ccccn1`, with 129 to 131 °C; and `Cn1cc(Br)c([N+](=O)[O-])n1`, with 157 to 159 °C. For `CCc1c(O)nc(S)n(-c2cccc(OC)c2)c1=O` the value was 141 to 143 °C. For `Cc1oncc1C(=O)NC(C)C(=O)O` (stereo unspecified) the value was 159 to 161 °C. In turn, `Cc1cccc(OC(C)C(=O)O)c1` (stereo unspecified) gave a melting point of 85 to 87 °C. For `O=C(O)c1ccc(N2CCC(O)CC2)cc1` the value was 259 to 261 °C. In turn, `O=C(NC1CCN(Cc2ccccc2)CC1)c1cccc(F)c1` showed a melting point of 143 to 145 °C. Turning to `O=C(Nc1cccc(-c2nnco2)c1)OCC(F)(F)F`, the melting point was 170 to 172 °C. Then `COC(=O)c1c(Cl)c([N+](=O)[O-])cc([N+](=O)[O-])c1Cl`, with 97 to 99 °C. Take `Clc1cncc(N2CCCC2)n1`: the melting point lay within 53 to 55 °C.

Take `Cc1nc2ccc(N)cc2o1`: the melting point was in the range of 129 to 131 °C. Then `Cc1cc(C(=O)O)c2c(C(C)C)noc2n1`, with 202 to 204 °C; and `CC(=O)CSc1ccccc1C(=O)O`, with 158 to 160 °C; and `O=C(Nc1ccc(F)cc1F)OCC(F)(F)F`, with 72 to 74 °C. For the compound `Cc1cccc(OCCCC(=O)O)c1`, the melting point is 55 to 57 °C. `Cc1nc(-c2cccc(NC(=O)OCC(F)(F)F)c2)cs1` registered a melting point of 94 to 96 °C. Then `CC(Br)C(=O)C12CC3CC(CC(C3)C1)C2` (stereo unspecified), with 86 to 88 °C; and `O=C(O)c1n[nH]c2c1CCCC2`, with 249 to 251 °C; and `Cc1noc(C)c1CSc1ccccc1C(=O)O`, with 192 to 194 °C.

The compound `CC(C)n1ncc2cc(S(=O)(=O)Cl)ccc21` displayed a melting point of 88 to 90 °C. In turn, `CCOC(=O)c1cc2c(nc1N)CCCC2` showed a melting point of 127 to 129 °C. Compound `CC(Cn1cncn1)C(N)=S` (stereo unspecified) had a melting point of 169 to 171 °C.

Take `CS(=O)(=O)c1cccc(C(=O)c2ccc(F)c(F)c2)c1`: the melting point was in the range of 122 to 124 °C.

The compound `O=C(O)c1nc(OCC(F)(F)F)ccc1Cl` registered a melting point of 85 to 87 °C.

For `O=C(O)C1CCN(c2ccc(S(=O)(=O)N3CCCCC3)cc2[N+](=O)[O-])CC1`, the melting point fell in the range of 241 to 243 °C.

In the case of `CNc1ncc(Br)cn1`, the melting point lay within 116 to 118 °C.

On to `COc1ccc(S(=O)(=O)N2CCNCC2)cc1OC`, for which the melting point fell in the range of 145 to 147 °C. Then `CON(C)S(=O)(=O)c1ccc(N)cc1`, with 148 to 150 °C. For `Nc1ccccc1C(=O)Nc1ccc(Cl)cc1` the value was 44 to 45 °C; for `Cc1cccc2nc(C(F)(F)F)[nH]c(=O)c12`, 118 to 120 °C; for `Cc1ccc(C(=O)O)cc1NC(=O)c1ccccc1`, 269 to 271 °C.

The compound `O=C(O)C1(NS(=O)(=O)c2cccc(F)c2)CCCCC1` came in with a melting point of 213 to 215 °C. `NC(=O)c1coc2ccccc12` displayed a melting point of 144 to 146 °C.

`NC(Cc1cccs1)=NO` had a melting point of 79 to 82 °C. Compound `NCC(O)c1cccc(F)c1` (stereo unspecified) yielded a melting point of 42 to 44 °C.

Compound `O=C(O)CCNc1ccc(C(F)(F)F)cc1[N+](=O)[O-]` yielded a melting point of 130 to 134 °C.

The record behind these values is a melting point compilation (Tetko et al.).
